Legend:
aldose reductase = molecular target: T1, aldose reductase (Homo sapiens, UniProt P15121); assay: aldose reductase activity, partially purified preparation from human placenta; assay type: biochemical; conditions: 10^-6 M
T1 construct: partially purified aldose reductase preparation from human placenta; from tissue; host or cells: human placenta
Method: The effect of the thiazolidine derivative (I) on aldose reductase activity was assayed after the method described in S. Haymen et al., Journal of Biological Chemistry, Vol. 240, 877 (1965) and Jin H. Kinoshita et al., Metabolism, Vol. 28, Nr. 4, Suppl 1, 462 (1979), etc. The enzyme used in the assay was a partially purified aldose reductase preparation from human placenta. The results for the respective compounds were expressed as % inhibition at the concentration of 10^-6 mole and are shown in Table 2.

rat lens = assay: swelling inhibitory effect in rat lens culture assay; assay type: cell-based; conditions: 10^-6 M
Method: The swelling inhibitory effect of each compound in a rat lens culture assay was evaluated by the method described in H. Obazawa et al., Invest. Ophthalmol Vol. 13, Nr. 3, 204 (1974).
The result for each compound was expressed as the % inhibition of swelling into the lens at the concentration of 10^-6 mole and are shown in Table 3.

[1] = single-dose lethality test in mice; assay type: in vivo; conditions: 2500 mg/kg once; groups of 5 mice
Method: In a test in mice (each group consisting of 5 mice), when the compounds (I), for example, 5-(3-ethoxy-4-pentyloxyphenyl)thiazolidine-2,4-dione and 5-(3-ethoxy-4-isopentyloxyphenyl)thiazolidine-2,4-dione were administered at a dose of 2500 mg/kg once, no mouse died.

CCCCOc1ccc(C2SC(=O)NC2=O)cc1OC (stereo not drawn) [Example 10 - No. 16]
inhibition at 1 µM (aldose reductase): 38.7%

CCOc1cc(C2SC(=O)NC2=O)ccc1OCC(C)(C)C (stereo not drawn) [Example 10 - No. 14]
inhibition at 1 µM (rat lens): 57.2%
inhibition at 1 µM (aldose reductase): 28%

CCCCCOc1ccc(C2SC(=O)NC2=O)cc1OC (stereo not drawn) [Example 10 - No. 17]
inhibition at 1 µM (aldose reductase): 40.6%

O=C1NC(=O)C(c2ccc(O)c(O)c2)S1 (stereo not drawn) [Example 10 - No. 6]
inhibition at 1 µM (aldose reductase): 41.8%

CCOc1ccc(C2SC(=O)NC2=O)cc1OCC (stereo not drawn) [Example 10 - No. 2]
inhibition at 1 µM (rat lens): 37%
inhibition at 1 µM (aldose reductase): 57%

CCOc1cc(C2SC(=O)NC2=O)ccc1OCCC(C)C (stereo not drawn) [Example 10 - No. 13]
inhibition at 1 µM (rat lens): 25.3%
inhibition at 1 µM (aldose reductase): 34%

CCCCCOc1cc(C2SC(=O)NC2=O)ccc1OC (stereo not drawn) [Example 10 - No. 20]
inhibition at 1 µM (aldose reductase): 30%

Cc1ccc(C2SC(=O)NC2=O)cc1C (stereo not drawn) [Example 5, 5-(3,4-dimethylphenyl)thiazolidine-2,4-dione]
inhibition at 1 µM (aldose reductase): 35.8%

CCCCCCOc1ccc(C2SC(=O)NC2=O)cc1OC (stereo not drawn) [Example 10 - No. 18]
inhibition at 1 µM (aldose reductase): 32.2%

CCCCOc1ccc(C2SC(=O)NC2=O)cc1OCCCC (stereo not drawn) [Example 10 - No. 8]
inhibition at 1 µM (aldose reductase): 51.7%

CCCCCOc1ccc(C2SC(=O)NC2=O)cc1OCC (stereo not drawn) [Example 4, 5-(3-ethoxy-4-pentyloxyphenyl)-thiazolidine-2,4-dione]
inhibition at 1 µM (rat lens): 44.6%
inhibition at 1 µM (aldose reductase): 34.6%
death of mice [1]: no mouse died

CCOc1cc(C2SC(=O)NC2=O)ccc1OCCCC(C)C (stereo not drawn) [Example 10 - No. 15]
inhibition at 1 µM (aldose reductase): 60.6%

CCOc1cc(C2SC(=O)NC2=O)ccc1O (stereo not drawn) [Example 10 - No. 3]
inhibition at 1 µM (aldose reductase): 51.6%

CCCCCCOc1ccc(C2SC(=O)NC2=O)cc1OCC (stereo not drawn) [Example 10 - No. 12]
inhibition at 1 µM (rat lens): 33%
inhibition at 1 µM (aldose reductase): 37.7%

COc1cc(C2SC(=O)NC2=O)ccc1OCCCC(C)C (stereo not drawn) [Example 10 - No. 19]
inhibition at 1 µM (aldose reductase): 68.1%

CCCOc1ccc(C2SC(=O)NC2=O)cc1OCCC (stereo not drawn) [Example 10 - No. 10]
inhibition at 1 µM (aldose reductase): 53.5%

CCOc1cc(C2SC(=O)NC2=O)ccc1OCCC(C)C (stereo not drawn) [5-(3-ethoxy-4-isopentyloxyphenyl)thiazolidine-2,4-dione]
death of mice [1]: no mouse died

CCOc1cc(C2SC(=O)NC2=O)ccc1OC(C)=O (stereo not drawn) [Example 10 - No. 4]
inhibition at 1 µM (rat lens): 23.7%
inhibition at 1 µM (aldose reductase): 59%

COc1ccc(C2SC(=O)NC2=O)cc1OC (stereo not drawn) [Example 10 - No. 1]
inhibition at 1 µM (rat lens): 30.3%
inhibition at 1 µM (aldose reductase): 57.1%

CCCCOc1ccc(C2SC(=O)NC2=O)cc1OCC (stereo not drawn) [Example 10 - No. 9]
inhibition at 1 µM (aldose reductase): 55.2%

O=C1NC(=O)C(c2ccc3c(c2)OCO3)S1 (stereo not drawn) [Example 10 - No. 7]
inhibition at 1 µM (aldose reductase): 47.4%

CC(=O)Oc1ccc(C2SC(=O)NC2=O)cc1OC(C)=O (stereo not drawn) [Example 10 - No. 5]
inhibition at 1 µM (aldose reductase): 76.9%
